The assay has as its system BDF1 mice, B16 melanoma s.c., survival/tumor T/C. The experiment in a line: NCI In Vivo Anticancer Drug Screen. Data for tumor model B16 Melanoma (subcutaneous) in B6D2F1 (BDF1) mice. As to the method: The antitumor activity of compounds was measured in mice bearing transplantable tumors. Survival or tumor size were measured and the results are expressed as the measurement made in the treated group (T) divided by the measurement made in the vehicle treated control group (C). The tumor model used in this assay is B16 Melanoma (subcutaneous) in B6D2F1 (BDF1) mice

[1] abbreviates: endpoint: median survival time, dose: 12.5 mg/kg/injection, schedule: Q01DX009 (ip), vehicle: Klucel (hydroxypropylcellulose) (HPC), higher = longer survival.
Where [2] appears, read: endpoint: median survival time, dose: 150.0 mg/kg/injection, schedule: Q01DX009 (ip), vehicle: Klucel (hydroxypropylcellulose) (HPC), higher = longer survival.

The structures appear in SMILES notation. Where “and” joins values, the source holds several entries; their conditions need not be identical. Identical values can stand only once. Records with an inconclusive call do not appear.

As to `S=c1nc[nH]c2nc[nH]c12`, the T/C is, setting by setting: under setting [1], 103 % of control and 118 % of control; (endpoint: median survival time, dose: 25.0 mg/kg/injection, schedule: Q01DX009 (ip), vehicle: saline with Tween-80, higher = longer survival) 100 % of control; (endpoint: median survival time, dose: 50.0 mg/kg/injection, schedule: Q01DX009 (ip), vehicle: saline with Tween-80, higher = longer survival) 100 % of control; (endpoint: median survival time, dose: 100.0 mg/kg/injection, schedule: Q01DX009 (ip), vehicle: saline with Tween-80, higher = longer survival) 93 % of control; (endpoint: median tumor weight (est.), dose: 25.0 mg/kg/injection, schedule: Q01DX009 (ip), vehicle: saline with Tween-80, higher = larger tumour) 103 % of control; (endpoint: median tumor weight (est.), dose: 50.0 mg/kg/injection, schedule: Q01DX009 (ip), vehicle: saline with Tween-80, higher = larger tumour) 91 % of control.
In the case of `C=C(C)C12OC3(c4ccccc4)OC1C1C4OC4(CO)C(O)C4(O)C(=O)C(C)=CC4C1(O3)C(C)C2OC(=O)/C=C/C=C/c1ccccc1` (stereo unspecified), the T/C was 115 % of control (endpoint: median survival time, dose: 6.3 micrograms/kg/injection, schedule: Q01DX009 (ip), vehicle: saline with Tween-80, higher = longer survival); 99 % of control (endpoint: median survival time, dose: 12.5 micrograms/kg/injection, schedule: Q01DX009 (ip), vehicle: saline with Tween-80, higher = longer survival); 115 % of control (endpoint: median survival time, dose: 25.0 micrograms/kg/injection, schedule: Q01DX009 (ip), vehicle: saline with Tween-80, higher = longer survival); 103 % of control (endpoint: median survival time, dose: 50.0 micrograms/kg/injection, schedule: Q01DX009 (ip), vehicle: saline with Tween-80, higher = longer survival); 98 % of control (endpoint: median survival time, dose: 100.0 micrograms/kg/injection, schedule: Q01DX009 (ip), vehicle: saline with Tween-80, higher = longer survival).
Turning to `COC(=O)Nc1cccc(-c2nc3ccc(NC(=O)OC)cc3c(=O)n2-c2ccccc2)c1`, the T/C is 99 % of control (endpoint: median survival time, dose: 50.0 mg/kg/injection, schedule: Q04DX005 (ip), vehicle: other, higher = longer survival); 115 % of control (endpoint: median survival time, dose: 100.0 mg/kg/injection, schedule: Q04DX005 (ip), vehicle: other, higher = longer survival); 102 % of control (endpoint: median survival time, dose: 100.0 mg/kg/injection, schedule: Q04DX005 (oral), vehicle: other, higher = longer survival); 94 % of control (endpoint: median survival time, dose: 200.0 mg/kg/injection, schedule: Q04DX005 (oral), vehicle: other, higher = longer survival).
Take `CN(C)/N=N/c1nc[nH]c1C(N)=O`: the T/C was 101 % of control under setting [1]; 89 % of control (endpoint: median survival time, dose: 25.0 mg/kg/injection, schedule: Q01DX009 (ip), vehicle: Klucel (hydroxypropylcellulose) (HPC), higher = longer survival); 175 % of control (endpoint: median survival time, dose: 37.5 mg/kg/injection, schedule: Q01DX009 (ip), vehicle: saline with Tween-80, higher = longer survival); 110 % of control (endpoint: median survival time, dose: 37.5 mg/kg/injection, schedule: Q01DX009 (ip), vehicle: saline, higher = longer survival); 119 % of control (endpoint: median survival time, dose: 50.0 mg/kg/injection, schedule: Q01DX009 (ip), vehicle: Klucel (hydroxypropylcellulose) (HPC), higher = longer survival); 160 % of control (endpoint: median survival time, dose: 75.0 mg/kg/injection, schedule: Q01DX009 (ip), vehicle: Klucel (hydroxypropylcellulose) (HPC), higher = longer survival). For the same compound, the T/C is 156 % of control (endpoint: median survival time, dose: 75.0 mg/kg/injection, schedule: Q01DX009 (ip), vehicle: saline with Tween-80, higher = longer survival); 113 % of control (endpoint: median survival time, dose: 75.0 mg/kg/injection, schedule: Q01DX009 (ip), vehicle: saline, higher = longer survival); 109 % of control (endpoint: median survival time, dose: 100.0 mg/kg/injection, schedule: Q01DX009 (ip), vehicle: Klucel (hydroxypropylcellulose) (HPC), higher = longer survival); 91 % of control under setting [2]; 154 % of control (endpoint: median survival time, dose: 150.0 mg/kg/injection, schedule: Q01DX009 (ip), vehicle: saline with Tween-80, higher = longer survival); 50 % of control (endpoint: median tumor weight (est.), dose: 37.0 mg/kg/injection, schedule: Q01DX009 (ip), vehicle: saline with Tween-80, higher = larger tumour). Also, the T/C is, setting by setting: (endpoint: median tumor weight (est.), dose: 75.0 mg/kg/injection, schedule: Q01DX009 (ip), vehicle: saline with Tween-80, higher = larger tumour) 110 % of control; (endpoint: median tumor weight (est.), dose: 150.0 mg/kg/injection, schedule: Q01DX009 (ip), vehicle: Klucel (hydroxypropylcellulose) (HPC), higher = larger tumour) 59 % of control; (endpoint: median tumor weight (est.), dose: 150.0 mg/kg/injection, schedule: Q01DX009 (ip), vehicle: saline with Tween-80, higher = larger tumour) 42 % of control; (endpoint: median tumor weight (est.), dose: 300.0 mg/kg/injection, schedule: Q01DX009 (ip), vehicle: saline with Tween-80, higher = larger tumour) 43 % of control.
Take `Nc1ncnc2c1ccn2C1OC(CO)C(O)C1O` (stereo unspecified): the T/C was 111 % of control (endpoint: median survival time, dose: 0.25 mg/kg/injection, schedule: Q01DX009 (ip), vehicle: saline, higher = longer survival); 106 % of control (endpoint: median survival time, dose: 0.5 mg/kg/injection, schedule: Q01DX009 (ip), vehicle: Klucel (hydroxypropylcellulose) (HPC), higher = longer survival); 106 % of control (endpoint: median survival time, dose: 0.5 mg/kg/injection, schedule: Q01DX009 (ip), vehicle: saline, higher = longer survival); 110 % of control (endpoint: median survival time, dose: 1.0 mg/kg/injection, schedule: Q01DX009 (ip), vehicle: Klucel (hydroxypropylcellulose) (HPC), higher = longer survival); 99 % of control (endpoint: median survival time, dose: 1.0 mg/kg/injection, schedule: Q01DX009 (ip), vehicle: saline, higher = longer survival).
`CS(=O)(=O)OCCCNCCCOS(C)(=O)=O`: the T/C is, setting by setting: (endpoint: median survival time, dose: 5.0 mg/kg/injection, schedule: Q01DX009 (ip), vehicle: saline, higher = longer survival) 106 % of control; (endpoint: median survival time, dose: 10.0 mg/kg/injection, schedule: Q01DX009 (ip), vehicle: saline, higher = longer survival) 110 % of control; (endpoint: median survival time, dose: 20.0 mg/kg/injection, schedule: Q01DX009 (ip), vehicle: saline, higher = longer survival) 92 % of control.
For `CCCCCCCC(=O)OCC(=O)[C@]1(O)Cc2c(O)c3c(c(O)c2[C@@H](OC2CC(N)C(O)C(C)O2)C1)C(=O)c1c(OC)cccc1C3=O` (stereo partly specified), the T/C was 98 % of control (endpoint: median survival time, dose: 0.5 mg/kg/injection, schedule: Q01DX009 (ip), vehicle: saline with Tween-80, higher = longer survival) and 109 % of control (endpoint: median survival time, dose: 1.0 mg/kg/injection, schedule: Q01DX009 (ip), vehicle: saline with Tween-80, higher = longer survival).
For the compound `COc1cccc2c1C(=O)c1c(O)c3c(c(O)c1C2=O)C[C@@](O)(/C(C)=N/NC(=O)c1ccccc1)C[C@@H]3OC1CC(N)C(O)C(C)O1` (stereo partly specified), the T/C was 103 % of control (endpoint: median survival time, dose: 3.0 mg/kg/injection, schedule: Q01DX009 (ip), vehicle: saline, higher = longer survival); 118 % of control (endpoint: median survival time, dose: 4.0 mg/kg/injection, schedule: Q01DX009 (ip), vehicle: saline, higher = longer survival); 121 % of control (endpoint: median survival time, dose: 6.0 mg/kg/injection, schedule: Q01DX009 (ip), vehicle: saline, higher = longer survival); 103 % of control (endpoint: median survival time, dose: 15.0 mg/kg/injection, schedule: Q04DX003 (ip), vehicle: saline, higher = longer survival); 93 % of control (endpoint: median survival time, dose: 30.0 mg/kg/injection, schedule: Q01DX001 (ip), vehicle: saline, higher = longer survival).
With `O=C(O)CCC(=O)O`, the T/C runs as follows: (endpoint: median survival time, dose: 5.0 mg/kg/injection, schedule: Q01DX009 (ip), vehicle: water, higher = longer survival) 117 % of control and 102 % of control; (endpoint: median survival time, dose: 40.0 mg/kg/injection, schedule: Q01DX009 (ip), vehicle: water, higher = longer survival) 114 % of control [middle of 6 runs]; (endpoint: median survival time, dose: 80.0 mg/kg/injection, schedule: Q01DX009 (ip), vehicle: water, higher = longer survival) 97 % of control [middle of 5 runs]; (endpoint: median survival time, dose: 160.0 mg/kg/injection, schedule: Q01DX009 (ip), vehicle: water, higher = longer survival) 96 % of control [middle of 4 runs].
With `OC(CBr)C(O)C(O)C(O)CBr` (stereo unspecified), the T/C is 102 % of control (endpoint: median survival time, dose: 20.0 mg/kg/injection, schedule: Q01DX009 (ip), vehicle: Klucel (hydroxypropylcellulose) (HPC), higher = longer survival); 106 % of control (endpoint: median survival time, dose: 40.0 mg/kg/injection, schedule: Q01DX009 (ip), vehicle: Klucel (hydroxypropylcellulose) (HPC), higher = longer survival); 113 % of control (endpoint: median survival time, dose: 125.0 mg/kg/injection, schedule: Q01DX009 (ip), vehicle: Klucel (hydroxypropylcellulose) (HPC), higher = longer survival); 106 % of control under setting [2]; 123 % of control (endpoint: median survival time, dose: 250.0 mg/kg/injection, schedule: Q01DX009 (ip), vehicle: Klucel (hydroxypropylcellulose) (HPC), higher = longer survival).
Turning to `CC1(C)N=C(N)N=C(N)N1c1ccc(OCCOc2ccc(S(=O)(=O)F)cc2)c(Cl)c1`, the T/C by setting is: (endpoint: median survival time, dose: 12.5 mg/kg/injection, schedule: Q04DX003 (ip), vehicle: saline, higher = longer survival) 104 % of control; (endpoint: median survival time, dose: 25.0 mg/kg/injection, schedule: Q04DX003 (ip), vehicle: saline, higher = longer survival) 104 % of control; (endpoint: median survival time, dose: 100.0 mg/kg/injection, schedule: Q04DX003 (ip), vehicle: saline, higher = longer survival) 109 % of control.
For the compound `OCC1SC(O)C(O)C(O)C1O` (stereo unspecified), the T/C by setting is: (endpoint: median survival time, dose: 500.0 mg/kg/injection, schedule: Q02HX003 (ip), vehicle: saline, higher = longer survival) 104 % of control; (endpoint: median survival time, dose: 500.0 mg/kg/injection, schedule: Q02HX003 (ip), vehicle: water, higher = longer survival) 103 % of control; (endpoint: median survival time, dose: 1000.0 mg/kg/injection, schedule: Q02HX003 (ip), vehicle: saline, higher = longer survival) 89 % of control; (endpoint: median survival time, dose: 1000.0 mg/kg/injection, schedule: Q02HX003 (ip), vehicle: water, higher = longer survival) 95 % of control; (endpoint: median survival time, dose: 1500.0 mg/kg/injection, schedule: Q01DX001 (ip), vehicle: saline, higher = longer survival) 100 % of control; (endpoint: median survival time, dose: 1500.0 mg/kg/injection, schedule: Q01DX001 (ip), vehicle: water, higher = longer survival) 99 % of control. Further, the T/C (endpoint: median survival time, dose: 3000.0 mg/kg/injection, schedule: Q01DX001 (ip), vehicle: saline, higher = longer survival) is 91 % of control and the T/C (endpoint: median survival time, dose: 3000.0 mg/kg/injection, schedule: Q01DX001 (ip), vehicle: water, higher = longer survival) is 92 % of control.
